Test results taken from patent US11414379B2, “SPAK kinase inhibitors as neuroprotective agents” (United States Government as represented by the Department …, priority 2018, dated 2022).

What was measured:
Experiment in all cases: Kinase panel (Dundee profiling)
Format in all cases: biochemical
Conditions in all cases: read-out: % residual kinase activity
Aurora A = Aurora A (Homo sapiens, UniProt O14965)
Method: (§1) The kinase selectivity of ZT-1a was further assessed using standard radioisotopic enzymatic assays against a panel of 140 recombinant kinases (Dundee profiling, Table 2) (Bain et al. (2007) The Biochemical journal 408, 297-315). ZT-1a at a concentration of 10 μM inhibited only MAPKAP-K2 activity 85±7% compared to DMSO control, representing high kinase selectivity.
(§2) Referring to Table 2, ZT-1a was tested at 10 and 1 μM against a panel of 140 recombinant kinases in an enzymatic activity-based assay performed by the International Centre for Kinase Profiling in the MRC Protein Phosphorylation and Ubiquitylation Unit. Values represent % residual kinase activity (mean+/−SEM, n=3). Kinases labelled with an asterick* are inhibited ≥50% by ZT-1a.

CAMK1 = CAMK1 (Homo sapiens, UniProt Q14012)
Method: as §1, §2

CLK2 = CLK2 (Homo sapiens, UniProt P49760)
Method: as §1, §2

EF2K = EF2K (Homo sapiens, UniProt O00418)
Method: as §1, §2

FGF-R1 = FGF-R1 (Homo sapiens, UniProt P11362)
Method: as §1, §2

HIPK2 = HIPK2 (Homo sapiens, UniProt Q9H2X6)
Method: as §1, §2

IKKb = IKKb (Homo sapiens, UniProt O14920)
Method: as §1, §2

IKKe = IKKe (Homo sapiens, UniProt Q14164)
Method: as §1, §2

IR = IR (Homo sapiens, UniProt P06213)
Method: as §1, §2

IRR = IRR (Homo sapiens, UniProt P14616)
Method: as §1, §2

JNK1 = JNK1 (Homo sapiens, UniProt P45983)
Method: as §1, §2

JNK3 = JNK3 (Homo sapiens, UniProt P53779)
Method: as §1, §2

Lck = Lck (Homo sapiens, UniProt P06239)
Method: as §1, §2

MARK2 = MARK2 (Homo sapiens, UniProt Q7KZI7)
Method: as §1, §2

MARK4 = MARK4 (Homo sapiens, UniProt Q96L34)
Method: as §1, §2

MINK1 = MINK1 (Homo sapiens, UniProt Q8N4C8)
Method: as §1, §2

MKK2 = MKK2 (Homo sapiens, UniProt P36507)
Method: as §1, §2

MST2 = MST2 (Homo sapiens, UniProt Q13188)
Method: as §1, §2

MST3 = MST3 (Homo sapiens, UniProt Q9Y6E0)
Method: as §1, §2

NEK2a = NEK2a (Homo sapiens, UniProt P51955)
Method: as §1, §2

NEK6 = NEK6 (Homo sapiens, UniProt Q9HC98)
Method: as §1, §2

NUAK1 = NUAK1 (Homo sapiens, UniProt O60285)
Method: as §1, §2

PDK1 = PDK1 (Homo sapiens, UniProt O15530)
Method: as §1, §2

PHK = PHK (Homo sapiens, UniProt Q16816)
Method: as §1, §2

ROCK2 = ROCK2 (Rattus norvegicus, UniProt Q62868)
Method: as §1, §2

SRPK1 = SRPK1 (Homo sapiens, UniProt Q96SB4)
Method: as §1, §2

TAO1 = TAO1 (Homo sapiens, UniProt Q7L7X3)
Method: as §1, §2

TBK1 = TBK1 (Homo sapiens, UniProt Q9UHD2)
Method: as §1, §2

TGFBR1 = TGFBR1 (Homo sapiens, UniProt P36897)
Method: as §1, §2

TLK1 = TLK1 (Homo sapiens, UniProt Q9UKI8)
Method: as §1, §2

ZAP70 = ZAP70 (Homo sapiens, UniProt P43403)
Method: as §1, §2

p38d MAPK = p38d MAPK (Homo sapiens, UniProt O15264)
Method: as §1, §2

JNK3, sequence (P53779 whole entry, species assumed): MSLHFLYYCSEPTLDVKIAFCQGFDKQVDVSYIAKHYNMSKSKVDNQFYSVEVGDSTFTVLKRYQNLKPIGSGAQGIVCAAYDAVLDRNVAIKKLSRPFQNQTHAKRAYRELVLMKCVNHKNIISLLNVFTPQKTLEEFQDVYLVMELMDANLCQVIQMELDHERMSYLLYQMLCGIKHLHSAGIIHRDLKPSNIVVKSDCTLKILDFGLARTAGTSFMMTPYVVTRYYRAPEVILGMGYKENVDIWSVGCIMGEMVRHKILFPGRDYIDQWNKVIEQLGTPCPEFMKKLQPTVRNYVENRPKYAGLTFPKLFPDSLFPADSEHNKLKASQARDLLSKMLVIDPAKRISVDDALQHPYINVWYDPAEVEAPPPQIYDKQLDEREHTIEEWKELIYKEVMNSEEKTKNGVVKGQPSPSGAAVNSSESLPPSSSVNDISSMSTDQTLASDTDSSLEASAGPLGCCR
MST2, sequence (Q13188 whole entry, species assumed): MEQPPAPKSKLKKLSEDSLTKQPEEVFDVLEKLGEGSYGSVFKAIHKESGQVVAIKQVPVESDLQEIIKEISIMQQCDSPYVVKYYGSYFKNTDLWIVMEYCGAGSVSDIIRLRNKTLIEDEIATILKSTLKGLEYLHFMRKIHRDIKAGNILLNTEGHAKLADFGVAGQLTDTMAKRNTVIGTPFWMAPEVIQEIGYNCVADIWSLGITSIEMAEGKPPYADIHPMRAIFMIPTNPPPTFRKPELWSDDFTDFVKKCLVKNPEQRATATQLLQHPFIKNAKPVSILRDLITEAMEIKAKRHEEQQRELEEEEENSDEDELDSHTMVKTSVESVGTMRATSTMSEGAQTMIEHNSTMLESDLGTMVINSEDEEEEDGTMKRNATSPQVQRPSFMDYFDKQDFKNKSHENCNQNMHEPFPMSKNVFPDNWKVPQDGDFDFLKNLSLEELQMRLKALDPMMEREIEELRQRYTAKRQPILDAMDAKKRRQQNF
MKK2, sequence (P36507 whole entry, species assumed): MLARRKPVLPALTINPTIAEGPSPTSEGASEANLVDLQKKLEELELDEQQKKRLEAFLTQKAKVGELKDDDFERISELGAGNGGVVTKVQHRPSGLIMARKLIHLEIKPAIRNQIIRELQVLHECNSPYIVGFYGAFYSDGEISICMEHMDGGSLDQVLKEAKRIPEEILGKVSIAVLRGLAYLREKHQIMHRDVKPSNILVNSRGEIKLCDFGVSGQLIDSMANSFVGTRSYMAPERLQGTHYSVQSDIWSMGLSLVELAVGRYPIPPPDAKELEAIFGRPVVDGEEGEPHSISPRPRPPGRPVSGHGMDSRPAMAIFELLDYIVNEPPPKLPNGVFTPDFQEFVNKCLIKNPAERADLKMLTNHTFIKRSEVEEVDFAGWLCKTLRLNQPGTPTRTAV
FGF-R1, sequence (P11362 22-822, species assumed): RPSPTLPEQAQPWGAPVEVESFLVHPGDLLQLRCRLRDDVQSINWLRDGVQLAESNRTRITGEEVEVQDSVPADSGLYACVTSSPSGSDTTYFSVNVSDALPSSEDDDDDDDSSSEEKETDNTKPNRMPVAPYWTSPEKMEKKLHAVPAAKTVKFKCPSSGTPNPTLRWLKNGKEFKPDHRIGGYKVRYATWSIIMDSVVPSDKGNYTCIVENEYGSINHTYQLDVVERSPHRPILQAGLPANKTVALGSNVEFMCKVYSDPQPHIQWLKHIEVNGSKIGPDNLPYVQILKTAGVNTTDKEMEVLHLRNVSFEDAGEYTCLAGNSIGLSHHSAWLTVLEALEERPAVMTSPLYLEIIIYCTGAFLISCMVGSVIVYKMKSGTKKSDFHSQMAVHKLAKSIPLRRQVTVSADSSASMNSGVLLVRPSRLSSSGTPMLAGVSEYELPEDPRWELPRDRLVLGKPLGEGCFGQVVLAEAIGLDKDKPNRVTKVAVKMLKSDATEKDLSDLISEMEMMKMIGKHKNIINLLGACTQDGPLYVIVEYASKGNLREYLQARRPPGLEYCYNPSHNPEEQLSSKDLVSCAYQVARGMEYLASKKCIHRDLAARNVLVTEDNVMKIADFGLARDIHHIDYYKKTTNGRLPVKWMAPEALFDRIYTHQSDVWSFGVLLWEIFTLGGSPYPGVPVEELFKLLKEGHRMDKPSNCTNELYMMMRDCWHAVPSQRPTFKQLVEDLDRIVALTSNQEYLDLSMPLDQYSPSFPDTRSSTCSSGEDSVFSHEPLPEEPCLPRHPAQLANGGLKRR
NEK2a, sequence (P51955 whole entry, species assumed): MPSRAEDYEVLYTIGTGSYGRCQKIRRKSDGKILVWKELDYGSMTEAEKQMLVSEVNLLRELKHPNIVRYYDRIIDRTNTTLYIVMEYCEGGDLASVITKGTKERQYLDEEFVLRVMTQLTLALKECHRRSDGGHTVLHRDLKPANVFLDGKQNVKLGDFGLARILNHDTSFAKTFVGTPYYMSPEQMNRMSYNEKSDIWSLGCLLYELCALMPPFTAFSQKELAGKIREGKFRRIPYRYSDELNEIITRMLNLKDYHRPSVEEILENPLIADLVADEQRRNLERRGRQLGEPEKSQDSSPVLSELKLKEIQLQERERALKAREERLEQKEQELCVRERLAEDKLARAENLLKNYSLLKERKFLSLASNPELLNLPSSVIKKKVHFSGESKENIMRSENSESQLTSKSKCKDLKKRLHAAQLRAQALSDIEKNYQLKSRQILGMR
TAO1, sequence (Q7L7X3 whole entry): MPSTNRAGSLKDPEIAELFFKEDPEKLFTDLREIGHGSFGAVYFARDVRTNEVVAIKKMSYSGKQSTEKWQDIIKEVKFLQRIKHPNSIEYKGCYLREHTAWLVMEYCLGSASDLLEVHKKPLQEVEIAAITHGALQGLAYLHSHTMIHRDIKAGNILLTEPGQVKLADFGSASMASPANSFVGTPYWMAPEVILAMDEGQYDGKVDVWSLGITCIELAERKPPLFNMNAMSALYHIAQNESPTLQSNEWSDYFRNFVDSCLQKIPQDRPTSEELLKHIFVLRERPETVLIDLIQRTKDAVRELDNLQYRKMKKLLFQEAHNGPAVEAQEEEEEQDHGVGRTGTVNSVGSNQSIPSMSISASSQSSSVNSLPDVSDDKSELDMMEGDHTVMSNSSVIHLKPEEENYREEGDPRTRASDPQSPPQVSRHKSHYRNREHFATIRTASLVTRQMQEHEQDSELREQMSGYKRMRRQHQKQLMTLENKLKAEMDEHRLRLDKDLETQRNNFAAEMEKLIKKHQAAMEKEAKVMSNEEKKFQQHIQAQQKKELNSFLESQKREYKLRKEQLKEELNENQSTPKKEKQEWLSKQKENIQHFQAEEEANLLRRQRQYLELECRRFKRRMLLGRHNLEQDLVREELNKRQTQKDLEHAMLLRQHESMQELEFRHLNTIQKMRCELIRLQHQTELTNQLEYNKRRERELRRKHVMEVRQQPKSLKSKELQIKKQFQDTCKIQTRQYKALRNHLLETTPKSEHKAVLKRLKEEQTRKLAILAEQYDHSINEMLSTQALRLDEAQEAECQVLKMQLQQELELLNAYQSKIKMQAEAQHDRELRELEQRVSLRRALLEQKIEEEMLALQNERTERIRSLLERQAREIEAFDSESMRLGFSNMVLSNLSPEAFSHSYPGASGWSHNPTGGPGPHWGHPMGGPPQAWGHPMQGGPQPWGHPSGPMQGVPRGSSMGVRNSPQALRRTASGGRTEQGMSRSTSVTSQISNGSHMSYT
MARK4, sequence (Q96L34 whole entry, species assumed): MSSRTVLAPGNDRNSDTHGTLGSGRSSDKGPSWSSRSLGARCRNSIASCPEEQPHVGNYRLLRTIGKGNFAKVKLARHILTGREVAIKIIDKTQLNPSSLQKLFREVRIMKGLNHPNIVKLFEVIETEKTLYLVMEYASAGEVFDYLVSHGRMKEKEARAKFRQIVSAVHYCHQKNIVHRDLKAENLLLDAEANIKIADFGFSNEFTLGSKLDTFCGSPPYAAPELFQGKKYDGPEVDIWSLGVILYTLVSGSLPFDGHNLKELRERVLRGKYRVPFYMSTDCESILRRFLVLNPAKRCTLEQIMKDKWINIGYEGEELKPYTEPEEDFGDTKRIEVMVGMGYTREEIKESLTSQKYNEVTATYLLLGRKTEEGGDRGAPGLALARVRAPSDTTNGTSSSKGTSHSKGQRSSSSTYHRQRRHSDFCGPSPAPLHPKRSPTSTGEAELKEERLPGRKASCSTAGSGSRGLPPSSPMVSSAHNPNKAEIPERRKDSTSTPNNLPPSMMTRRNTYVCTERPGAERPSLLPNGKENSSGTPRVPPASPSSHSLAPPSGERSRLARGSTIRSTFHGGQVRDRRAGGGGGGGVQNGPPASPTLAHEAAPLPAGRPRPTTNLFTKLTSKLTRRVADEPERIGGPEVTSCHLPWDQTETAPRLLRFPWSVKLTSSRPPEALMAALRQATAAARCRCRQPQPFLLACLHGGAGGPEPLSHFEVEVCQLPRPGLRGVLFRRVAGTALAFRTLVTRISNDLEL
PDK1, sequence (O15530 whole entry): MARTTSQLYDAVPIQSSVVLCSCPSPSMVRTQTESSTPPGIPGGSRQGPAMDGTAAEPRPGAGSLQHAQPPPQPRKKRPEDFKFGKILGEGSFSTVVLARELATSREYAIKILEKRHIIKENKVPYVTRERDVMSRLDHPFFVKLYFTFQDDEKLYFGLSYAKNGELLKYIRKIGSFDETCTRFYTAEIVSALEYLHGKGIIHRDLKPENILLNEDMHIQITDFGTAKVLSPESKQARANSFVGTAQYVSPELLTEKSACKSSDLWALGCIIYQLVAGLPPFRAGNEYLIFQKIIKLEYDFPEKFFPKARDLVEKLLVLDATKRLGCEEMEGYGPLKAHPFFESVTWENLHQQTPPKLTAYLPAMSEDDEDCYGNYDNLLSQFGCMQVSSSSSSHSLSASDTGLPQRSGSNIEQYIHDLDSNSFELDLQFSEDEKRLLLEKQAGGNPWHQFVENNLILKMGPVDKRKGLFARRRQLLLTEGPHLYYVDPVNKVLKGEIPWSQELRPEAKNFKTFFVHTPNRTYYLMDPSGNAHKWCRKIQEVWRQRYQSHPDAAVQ

Structure (SMILES): Cc1cc(C(C#N)c2ccc(Cl)cc2)c(Cl)cc1NC(=O)c1cc(Cl)ccc1O (stereo not shown) [ZT-1a, 5-chloro-N-(5-chloro-4-((4-chlorophenyl)(cyano)methyl)-2-methylphenyl)-2-hydroxy-benzamide]
- remaining activity at 1 µM (Aurora A; 1 μM): 73 ± 19%
- remaining activity at 10 µM (Aurora A; 10 μM): 65 ± 1%
- remaining activity at 1 µM (CAMK1; 1 μM): 60 ± 5%
- remaining activity at 10 µM (CAMK1; 10 μM): 71 ± 31%
- remaining activity at 1 µM (CLK2; 1 μM): 68 ± 12%
- remaining activity at 10 µM (CLK2; 10 μM): 33 ± 45%
- remaining activity at 1 µM (EF2K; 1 μM): 104 ± 13%
- remaining activity at 10 µM (EF2K; 10 μM): 56 ± 2%
- remaining activity at 1 µM (FGF-R1; 1 μM): 93 ± 6%
- remaining activity at 10 µM (FGF-R1; 10 μM): 101 ± 15%
- remaining activity at 1 µM (HIPK2; 1 μM): 90 ± 14%
- remaining activity at 10 µM (HIPK2; 10 μM): 91 ± 4%
- remaining activity at 1 µM (IKKb; 1 μM): 101%
- remaining activity at 10 µM (IKKb; 10 μM): 78 ± 3%
- remaining activity at 1 µM (IKKe; 1 μM): 87 ± 13%
- remaining activity at 10 µM (IKKe; 10 μM): 59 ± 5%
- remaining activity at 1 µM (IR; 1 μM): 105 ± 2%
- remaining activity at 10 µM (IR; 10 μM): 86 ± 13%
- remaining activity at 1 µM (IRR; 1 μM): 105 ± 5%
- remaining activity at 10 µM (IRR; 10 μM): 95 ± 4%
- remaining activity at 1 µM (JNK1; 1 μM): 106 ± 4%
- remaining activity at 10 µM (JNK1; 10 μM): 110 ± 5%
- remaining activity at 1 µM (JNK3; 1 μM): 63 ± 15%
- remaining activity at 10 µM (JNK3; 10 μM): 60 ± 10%
- remaining activity at 1 µM (Lck; 1 μM): 112 ± 13%
- remaining activity at 10 µM (Lck; 10 μM): 127 ± 14%
- remaining activity at 1 µM (MARK2; 1 μM): 103 ± 8%
- remaining activity at 10 µM (MARK2; 10 μM): 89 ± 15%
- remaining activity at 1 µM (MARK4; 1 μM): 68 ± 8%
- remaining activity at 10 µM (MARK4; 10 μM): 59 ± 9%
- remaining activity at 1 µM (MINK1; 1 μM): 107 ± 5%
- remaining activity at 10 µM (MINK1; 10 μM): 108 ± 6%
- remaining activity at 1 µM (MKK2; 1 μM): 126 ± 2%
- remaining activity at 10 µM (MKK2; 10 μM): 81 ± 27%
- remaining activity at 1 µM (MST2; 1 μM): 115 ± 4%
- remaining activity at 10 µM (MST2; 10 μM): 113 ± 2%
- remaining activity at 1 µM (MST3; 1 μM): 109 ± 8%
- remaining activity at 10 µM (MST3; 10 μM): 113 ± 15%
- remaining activity at 1 µM (NEK2a; 1 μM): 85 ± 12%
- remaining activity at 10 µM (NEK2a; 10 μM): 91 ± 6%
- remaining activity at 1 µM (NEK6; 1 μM): 107 ± 6%
- remaining activity at 10 µM (NEK6; 10 μM): 108 ± 1%
- remaining activity at 1 µM (NUAK1; 1 μM): 52 ± 7%
- remaining activity at 10 µM (NUAK1; 10 μM): 61 ± 16%
- remaining activity at 1 µM (PDK1; 1 μM): 92 ± 6%
- remaining activity at 10 µM (PDK1; 10 μM): 69 ± 17%
- remaining activity at 1 µM (PHK; 1 μM): 97 ± 3%
- remaining activity at 10 µM (PHK; 10 μM): 107 ± 2%
- remaining activity at 1 µM (ROCK2; 1 μM): 109 ± 6%
- remaining activity at 10 µM (ROCK2; 10 μM): 101 ± 10%
- remaining activity at 1 µM (SRPK1; 1 μM): 104 ± 5%
- remaining activity at 10 µM (SRPK1; 10 μM): 73 ± 20%
- remaining activity at 1 µM (TAO1; 1 μM): 66 ± 2%
- remaining activity at 10 µM (TAO1; 10 μM): 104 ± 2%
- remaining activity at 1 µM (TBK1; 1 μM): 119 ± 10%
- remaining activity at 10 µM (TBK1; 10 μM): 94 ± 3%
- remaining activity at 1 µM (TGFBR1; 1 μM): 63 ± 9%
- remaining activity at 10 µM (TGFBR1; 10 μM): 77 ± 5%
- remaining activity at 1 µM (TLK1; 1 μM): 130 ± 13%
- remaining activity at 10 µM (TLK1; 10 μM): 124 ± 4%
- remaining activity at 1 µM (ZAP70; 1 μM): 120 ± 1%
- remaining activity at 10 µM (ZAP70; 10 μM): 97 ± 9%
- remaining activity at 1 µM (p38d MAPK; 1 μM): 95 ± 1%
- remaining activity at 10 µM (p38d MAPK; 10 μM): 112 ± 2%
